Assay results reported in PubChem BioAssay (NCI).
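Cultured in 96-well plates, cells were exposed to test compound for 48 hours across five concentrations. TGI marks complete inhibition of growth.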

Columns and labels:
Assay in all cases: DTP human tumour cell line panel, 48 h
SNB-19 CNS = tested on: SNB-19 CNS
SR leukemia = tested on: SR leukemia
RXF 393 renal = tested on: RXF 393 renal
OVCAR-5 ovarian = tested on: OVCAR-5 ovarian
T-47D breast = tested on: T-47D breast
UACC-257 melanoma = tested on: UACC-257 melanoma
MALME-3M melanoma = tested on: MALME-3M melanoma
SK-MEL-2 melanoma = tested on: SK-MEL-2 melanoma
A549 NSCLC = tested on: A549 NSCLC
HOP-92 NSCLC = tested on: HOP-92 NSCLC
SNB-75 CNS = tested on: SNB-75 CNS
ACHN renal = tested on: ACHN renal
MDA-N = tested on: MDA-N
SK-MEL-5 melanoma = tested on: SK-MEL-5 melanoma
SF-268 CNS = tested on: SF-268 CNS
MDA-MB-231 breast = tested on: MDA-MB-231 breast
COLO 205 colon = tested on: COLO 205 colon
K-562 leukemia = tested on: K-562 leukemia
KM12 colon = tested on: KM12 colon
SK-OV-3 ovarian = tested on: SK-OV-3 ovarian
SN12C renal = tested on: SN12C renal
HCC-2998 colon = tested on: HCC-2998 colon
HCT-116 colon = tested on: HCT-116 colon
HT29 colon = tested on: HT29 colon
HOP-62 NSCLC = tested on: HOP-62 NSCLC
OVCAR-8 ovarian = tested on: OVCAR-8 ovarian
786-0 renal = tested on: 786-0 renal
MCF7 breast = tested on: MCF7 breast
HS 578T breast = tested on: HS 578T breast
SF-295 CNS = tested on: SF-295 CNS
UO-31 renal = tested on: UO-31 renal
IGROV1 ovarian = tested on: IGROV1 ovarian
LOX IMVI melanoma = tested on: LOX IMVI melanoma
M14 melanoma = tested on: M14 melanoma
TK-10 renal = tested on: TK-10 renal
SF-539 CNS = tested on: SF-539 CNS
SK-MEL-28 melanoma = tested on: SK-MEL-28 melanoma
CCRF-CEM leukemia = tested on: CCRF-CEM leukemia
U251 CNS = tested on: U251 CNS
UACC-62 melanoma = tested on: UACC-62 melanoma
EKVX NSCLC = tested on: EKVX NSCLC
PC-3 prostate = tested on: PC-3 prostate
NCI/ADR-RES ovarian = tested on: NCI/ADR-RES ovarian
HCT-15 colon = tested on: HCT-15 colon
BT-549 breast = tested on: BT-549 breast
OVCAR-4 ovarian = tested on: OVCAR-4 ovarian
NCI-H460 lung = tested on: NCI-H460 lung
SW-620 colon = tested on: SW-620 colon
A498 renal = tested on: A498 renal
NCI-H23 lung = tested on: NCI-H23 lung
DU-145 prostate = tested on: DU-145 prostate
RPMI-8226 leukemia = tested on: RPMI-8226 leukemia
MDA-MB-435 = tested on: MDA-MB-435
HL-60(TB) leukemia = tested on: HL-60(TB) leukemia
NCI-H522 lung = tested on: NCI-H522 lung
MOLT-4 leukemia = tested on: MOLT-4 leukemia
OVCAR-3 ovarian = tested on: OVCAR-3 ovarian
NCI-H226 lung = tested on: NCI-H226 lung
CAKI-1 renal = tested on: CAKI-1 renal

Measured: TGI

CC1(C)OCC2OC(n3cnc4c(N)nc(Cl)nc43)C(OS(C)(=O)=O)C2O1 (stereo not drawn)
> 100 µM: SNB-19 CNS | SR leukemia | RXF 393 renal | OVCAR-5 ovarian | T-47D breast | UACC-257 melanoma | MALME-3M melanoma | SK-MEL-2 melanoma | A549 NSCLC | HOP-92 NSCLC | SNB-75 CNS | ACHN renal | MDA-N | SK-MEL-5 melanoma | SF-268 CNS | MDA-MB-231 breast | COLO 205 colon | K-562 leukemia | KM12 colon | SK-OV-3 ovarian | SN12C renal | HCC-2998 colon | HCT-116 colon | HT29 colon | HOP-62 NSCLC | OVCAR-8 ovarian | 786-0 renal | MCF7 breast | HS 578T breast | SF-295 CNS | UO-31 renal | IGROV1 ovarian | LOX IMVI melanoma | M14 melanoma | TK-10 renal | SF-539 CNS | SK-MEL-28 melanoma | CCRF-CEM leukemia | U251 CNS | UACC-62 melanoma | EKVX NSCLC | PC-3 prostate | NCI/ADR-RES ovarian | HCT-15 colon | BT-549 breast | OVCAR-4 ovarian | NCI-H460 lung | SW-620 colon | A498 renal | NCI-H23 lung | DU-145 prostate | RPMI-8226 leukemia | MDA-MB-435 | HL-60(TB) leukemia | NCI-H522 lung | MOLT-4 leukemia | OVCAR-3 ovarian | NCI-H226 lung | CAKI-1 renal

Cc1cn(C2CC(O)C(Cn3nncc3Cn3nc(Br)c(=O)[nH]c3=O)O2)c(=O)[nH]c1=O (stereo not drawn)
> 100 µM: SNB-19 CNS | SR leukemia | RXF 393 renal | OVCAR-5 ovarian | T-47D breast | UACC-257 melanoma | MALME-3M melanoma | SK-MEL-2 melanoma | A549 NSCLC | HOP-92 NSCLC | ACHN renal | MDA-N | SK-MEL-5 melanoma | SF-268 CNS | MDA-MB-231 breast | COLO 205 colon | KM12 colon | SK-OV-3 ovarian | SN12C renal | HCC-2998 colon | HCT-116 colon | HOP-62 NSCLC | OVCAR-8 ovarian | 786-0 renal | MCF7 breast | HS 578T breast | SF-295 CNS | UO-31 renal | IGROV1 ovarian | LOX IMVI melanoma | M14 melanoma | TK-10 renal | SF-539 CNS | SK-MEL-28 melanoma | CCRF-CEM leukemia | U251 CNS | UACC-62 melanoma | EKVX NSCLC | PC-3 prostate | NCI/ADR-RES ovarian | HCT-15 colon | BT-549 breast | OVCAR-4 ovarian | SW-620 colon | A498 renal | NCI-H23 lung | DU-145 prostate | RPMI-8226 leukemia | MDA-MB-435 | NCI-H522 lung | MOLT-4 leukemia | OVCAR-3 ovarian | NCI-H226 lung | CAKI-1 renal
